Results: patent US4198507A (Hoffmann-La Roche Inc., priority 1978, dated 1980)

Columns and labels:
[1] = system: Mice; experiment: Acute toxicity, mice p.o. (72 hours); type: in vivo
Procedure: 1. Acute Toxicity LC50 Mice p.o. (72 hours)

[2] = prior art; cited from earlier work
[3] = system: gastrointestinal tract; conditions: compared with the parent xanthines; prior art; cited from earlier work
[4] = prior art; cited from earlier work; remark: listed apart in the source

With `O=C(O)c1ccccc1O` [Magnesium Sailicylate, magnesium salicylate] the “Acute Toxicity LC50” value [1] was 1200 ± 53 mg.

With `Cn1c(=O)c2[nH]cnc2n(C)c1=O` [Theophylline anhydrous, 1, 3, dimethyl xanthine] the “Acute Toxicity LC50” value [1] was 460 ± 35 mg.

In the case of `Cn1cnc2c1c(=O)[nH]c(=O)n2C` [theobromine sodium salicylate], the “water solubility (in words)” value [2] is listed as “soluble”.

In the case of `CC(=O)[O-].Cn1c(=O)c2[nH]cnc2n(C)c1=O.[Na+]` [theophylline sodium acetate], the “water solubility (in words)” value [2] is listed as “soluble in water”.

In the case of theophylline calcium salicylate, the “tolerance in the gastrointestinal tract” value [3] is listed as “better tolerated” and the “reaction in aqueous solutions or suspensions” value [4] is listed as “alkaline reactions”.
